Here are results for 21 molecules from patent US9809598B2 (Merck Patent GmbH, priority 2014, dated 2017).

In general, EC50 refers to the midpoint of the concentration-response curve. What is called IC50 is the midpoint of a concentration-inhibition curve.

One assay has as its system Tankyrases. Conditions: read-out: EC50 [M] TNKS cellular assay; DLD1 cells, 24 hours, Axin2 increase.
For the next assay, the target named is T1, PARP-1 (Homo sapiens, UniProt P09874).
T1 construct: purchased Enzo Life Sciences GmbH, Lörrach, Germany
T1 sequence (P09874 whole entry): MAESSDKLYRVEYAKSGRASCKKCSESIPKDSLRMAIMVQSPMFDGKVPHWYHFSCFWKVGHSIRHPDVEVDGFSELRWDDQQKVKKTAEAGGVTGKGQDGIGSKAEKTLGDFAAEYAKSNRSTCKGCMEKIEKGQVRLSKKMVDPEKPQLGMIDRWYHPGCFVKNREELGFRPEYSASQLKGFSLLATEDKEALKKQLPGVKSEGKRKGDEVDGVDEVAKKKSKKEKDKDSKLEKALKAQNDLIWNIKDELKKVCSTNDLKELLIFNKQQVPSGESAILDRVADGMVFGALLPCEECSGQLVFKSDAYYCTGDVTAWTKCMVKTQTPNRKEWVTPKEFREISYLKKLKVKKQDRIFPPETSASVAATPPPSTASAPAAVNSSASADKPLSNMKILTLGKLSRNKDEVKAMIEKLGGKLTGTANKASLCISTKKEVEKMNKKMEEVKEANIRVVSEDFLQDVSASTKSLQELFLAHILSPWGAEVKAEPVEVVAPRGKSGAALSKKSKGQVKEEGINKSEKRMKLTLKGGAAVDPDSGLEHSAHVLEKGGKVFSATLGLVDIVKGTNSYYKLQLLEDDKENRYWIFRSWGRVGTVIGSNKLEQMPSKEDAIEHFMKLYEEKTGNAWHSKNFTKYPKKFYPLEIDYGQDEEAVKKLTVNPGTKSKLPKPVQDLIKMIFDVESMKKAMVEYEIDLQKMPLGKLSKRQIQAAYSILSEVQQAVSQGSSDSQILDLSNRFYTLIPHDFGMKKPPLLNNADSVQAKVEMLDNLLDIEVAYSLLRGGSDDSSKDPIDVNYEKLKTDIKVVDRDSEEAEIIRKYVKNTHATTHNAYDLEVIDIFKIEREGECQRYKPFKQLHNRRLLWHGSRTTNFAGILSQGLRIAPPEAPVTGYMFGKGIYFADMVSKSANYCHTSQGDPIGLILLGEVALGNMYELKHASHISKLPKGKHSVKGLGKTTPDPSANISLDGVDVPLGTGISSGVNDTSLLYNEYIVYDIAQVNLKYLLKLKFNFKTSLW
As to the kind of experiment: PARP-1 autoparsylation assay (HTRF). Conditions: His-tagged Parp-1, autoparsylation HTRF. Type of assay: biochemical. Put shortly: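 HTRF emission ratio reports biotin-ADP-ribose self-transfer onto His-tagged PARP-1, with biotinylated NAD/NAD as co-substrate, sensed via cryptate anti-His and Xlent-streptavidin.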

A further assay has as its target T2, TNKS1 (Homo sapiens, UniProt O95271).
T2 construct: GST-tagged Tnks-1 (1023-1327 aa, prepared in-house); made in house
Nature of the assay: TNKS1 activity ELISA (autoparsylation assay). Type of assay: biochemical. Conditions: GST-tagged Tnks-1 (1023-1327 aa). Put shortly: (§1)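 Autoparsylation ELISA: biotinylated NAD serves as co-substrate for plate-bound GST-TNKS1/TNKS2, incubated with test compounds. Readout is HRP luminescence after streptavidin-HRP binding, referenced to the no-inhibitor reaction, from which IC50 values are derived.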
On the technique in general: In an ELISA, binding on a coated surface is turned into a signal by an enzyme label.

The next assay addresses T3, TNKS2 (Homo sapiens, UniProt Q9H2K2).
T3 construct: GST-tagged Tnks-2 (873-1166 aa, prepared in-house); made in house
Nature of the assay: TNKS2 activity ELISA (autoparsylation assay). Type of assay: biochemical. Conditions: GST-tagged Tnks-2 (873-1166 aa); read-out: IC50 [M] TNKS2 ELISA. Put shortly:
as §1

The structures appear in SMILES notation. Structures can show the parent of a compound that is named as a salt.

T3 sequence (Q9H2K2 873-1166): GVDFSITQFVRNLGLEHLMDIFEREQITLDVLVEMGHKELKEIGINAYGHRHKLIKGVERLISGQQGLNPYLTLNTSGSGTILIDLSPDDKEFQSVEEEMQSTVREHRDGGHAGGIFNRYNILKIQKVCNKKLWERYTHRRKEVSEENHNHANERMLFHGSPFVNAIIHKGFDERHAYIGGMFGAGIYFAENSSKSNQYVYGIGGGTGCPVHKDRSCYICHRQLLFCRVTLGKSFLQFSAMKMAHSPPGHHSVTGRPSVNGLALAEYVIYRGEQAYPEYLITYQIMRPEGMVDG
T2 sequence (O95271 1023-1327): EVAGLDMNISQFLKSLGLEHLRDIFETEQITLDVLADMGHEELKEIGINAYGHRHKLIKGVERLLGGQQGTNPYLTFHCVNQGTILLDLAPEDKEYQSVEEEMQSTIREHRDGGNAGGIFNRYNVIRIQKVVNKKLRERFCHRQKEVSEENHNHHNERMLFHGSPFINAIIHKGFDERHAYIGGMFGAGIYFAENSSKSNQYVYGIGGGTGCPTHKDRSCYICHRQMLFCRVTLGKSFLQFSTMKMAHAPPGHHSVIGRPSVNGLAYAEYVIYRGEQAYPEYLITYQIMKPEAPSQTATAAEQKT

As for `Cc1cc2c(=O)[nH]c(CCCC(=O)N3CCC(C(=O)c4cnn(C(C)C)c4)CC3)cn2n1` [Compound C217, 6-{4-[4-(1-Isopropyl-1H-pyrazole-4-carbonyl)-piperidin-1-yl]-4-oxo-butyl}-2-methyl-5H-pyrazolo[1,5-a]pyrazin-4-one], in the assay on Tankyrases, the EC50 was 3e-08 M. The figures for the IC50 at PARP-1, against TNKS1 and at TNKS2 were 6600 nM, 2 nM and 2.7e-09 M, respectively.

`CC(C)n1cc(C(=O)C2CCN(C(=O)CCCc3nn4cccc4c(=O)[nH]3)CC2)cn1` [Compound C219, 2-{4-[4-(1-Isopropyl-1H-pyrazole-4-carbonyl)-piperidin-1-yl]-4-oxo-butyl}-3H-pyrrolo[2,1-f][1,2,4]triazin-4-one]: the EC50 in the assay with Tankyrases amounted to 2.4e-08 M. Also, the IC50 was 25000 nM against PARP-1, 2 nM on TNKS1 and 1.2e-09 M on TNKS2.

In the case of `Cc1cc2c(=O)[nH]c(CCCC(=O)N3CCC(C(=O)c4cnn(C(C)C)c4)CC3)nn2c1` [Compound C220, 2-{4-[4-(1-Isopropyl-1H-pyrazole-4-carbonyl)-piperidin-1-yl]-4-oxo-butyl}-6-methyl-3H-pyrrolo[2,1-f][1,2,4]triazin-4-one], in the assay on Tankyrases, the EC50 is 4e-08 M. Besides, the IC50 stood at 6200 nM against PARP-1, 4.2 nM at TNKS1 and 3.7e-09 M at TNKS2.

For `CC(C)n1cc(C(=O)C2CCN(C(=O)CCCc3nn4cc(F)cc4c(=O)[nH]3)CC2)cn1` [Compound C221, 6-Fluoro-2-{4-[4-(1-isopropyl-1H-pyrazole-4-carbonyl)-piperidin-1-yl]-4-oxo-butyl}-3H-pyrrolo[2,1-f][1,2,4]triazin-4-one], the EC50 in the assay with Tankyrases was found to be 2.7e-08 M. Moreover, the IC50 was 1900 nM on PARP-1, 2.1 nM on TNKS1 and 2e-09 M at TNKS2.

In the case of `CCn1cc(C(=O)C2CCN(C(=O)CCCc3nn4c(C)ccc4c(=O)[nH]3)CC2)cn1` [Compound C222, 2-{4-[4-(1-Ethyl-1H-pyrazole-4-carbonyl)-piperidin-1-yl]-4-oxo-butyl}-7-methyl-3H-pyrrolo[2,1-f][1,2,4]triazin-4-one], in the assay with Tankyrases, the EC50 stood at 2.6e-09 M. Also, the values for the IC50 against PARP-1, against TNKS1 and on TNKS2 were 1200 nM, 0.24 nM and 2.9e-10 M, respectively.

For the molecule `Cc1ccc2c(=O)[nH]c(CCCC(=O)N3CCC(C(=O)c4cnn(C(C)C)c4)CC3)nn12` [Compound C223, 2-{4-[4-(1-Isopropyl-1H-pyrazole-4-carbonyl)-piperidin-1-yl]-4-oxo-butyl}-7-methyl-3H-pyrrolo[2,1-f][1,2,4]triazin-4-one], in the assay on Tankyrases, the EC50 was 3.3e-09 M. Further, the IC50 against PARP-1 turned out to be 840 nM; against TNKS1 it was 0.6 nM; on TNKS2 it was 5.1e-10 M.

As for `CCn1cc(C(=O)C2CCN(C(=O)CCCc3nc4c(C)csc4c(=O)[nH]3)CC2)cn1` [Compound C224, 2-{4-[4-(1-Ethyl-1H-pyrazole-4-carbonyl)-piperidin-1-yl]-4-oxo-butyl}-7-methyl-3H-thieno[3,2-d]pyrimidin-4-one trifluoroacetate], in the assay on Tankyrases, the EC50 amounted to 1.8e-08 M. For the same molecule, the IC50 at PARP-1 came to 3100 nM; on TNKS1, 0.87 nM; on TNKS2, 7.1e-10 M.

For `Cc1csc2c(=O)[nH]c(CCCC(=O)N3CCC(C(=O)c4cnn(C(C)C)c4)CC3)nc12` [Compound C225, 2-{4-[4-(1-Isopropyl-1H-pyrazole-4-carbonyl)-piperidin-1-yl]-4-oxo-butyl}-7-methyl-3H-thieno[3,2-d]pyrimidin-4-one], in the assay with Tankyrases, the EC50 came out at 1.4e-08 M. The IC50 came out at 700 nM against PARP-1, 0.73 nM at TNKS1 and 4e-10 M at TNKS2.

Regarding `Cc1scc2c(=O)[nH]c(CCCC(=O)N3CCC(C(=O)c4cnn(C(C)C)c4)CC3)nc12` [Compound C226, 2-{4-[4-(1-Isopropyl-1H-pyrazole-4-carbonyl)-piperidin-1-yl]-4-oxo-butyl}-7-methyl-3H-thieno[3,4-d]pyrimidin-4-one], the EC50 in the assay on Tankyrases worked out at 2.5e-08 M. The IC50 on PARP-1 amounted to 1800 nM; at TNKS1, 1.6 nM; on TNKS2, 9.5e-10 M.

Take `COc1ccc(C(=O)C2CCN(C(=O)CCCc3nc4c(c(=O)[nH]3)CCCC4)CC2)cc1` [Compound C227, 2-{4-[4-(4-Methoxy-benzoyl)-piperidin-1-yl]-4-oxo-butyl}-5,6,7,8-tetrahydro-3H-quinazolin-4-one]: the EC50 in the assay with Tankyrases was found to be 3.7e-09 M. Moreover, the IC50 on PARP-1 is 410 nM; against TNKS1, 0.66 nM; on TNKS2, 4.2e-10 M.

`CC(C)n1cc(C(=O)C2CCN(C(=O)CCCc3nc4c(c(=O)[nH]3)COCC4)CC2)cn1` [Compound C229, 2-{4-[4-(1-Isopropyl-1H-pyrazole-4-carbonyl)-piperidin-1-yl]-4-oxo-butyl}-3,5,7,8-tetrahydro-pyrano[4,3-d]pyrimidin-4-one]: the EC50 in the assay with Tankyrases was 1.6e-06 M. Moreover, the figures for the IC50 on PARP-1, against TNKS1 and at TNKS2 were 24000 nM, 23 nM and 2.3e-09 M, respectively.

`Cn1cc(C(=O)C2CCN(C(=O)CCCc3nc4c(c(=O)[nH]3)CCCC4)CC2)cn1` [Compound C230, 2-{4-[4-(1-Methyl-1H-pyrazole-4-carbonyl)-piperidin-1-yl]-4-oxo-butyl}-5,6,7,8-tetrahydro-3H-quinazolin-4-one]: the EC50 with Tankyrases amounted to 4.7e-08 M. For the same molecule, the IC50 was found to be 1800 nM against PARP-1, 5.1 nM against TNKS1 and 2.1e-09 M at TNKS2.

Take `COc1ccc(C(=O)C2CCN(C(=O)CCCc3cn4nc(C)cc4c(=O)[nH]3)CC2)cn1` [Compound C231, 6-{4-[4-(6-Methoxy-pyridine-3-carbonyl)-piperidin-1-yl]-4-oxo-butyl}-2-methyl-5H-pyrazolo[1,5-a]pyrazin-4-one]: the EC50 with Tankyrases stood at 5.4e-09 M. Further, the IC50 against PARP-1 worked out at 4500 nM; against TNKS1, 0.36 nM; at TNKS2, 5.4e-10 M.

For `N#Cc1cc(C2CCN(C(=O)CCCc3nc4c(c(=O)[nH]3)CCCC4)CC2)cnc1N` [Compound C232, 6-Amino-1′-[4-(4-oxo-3,4,5,6,7,8-hexahydro-quinazolin-2-yl)-butyryl]-1′,2′,3′,4′,5′,6′-hexahydro-[3,4′]bipyridinyl-5-carbonitrile], in the assay on Tankyrases, the EC50 amounted to 5.6e-08 M. Also, the IC50 at PARP-1 was 2700 nM; against TNKS1, 20 nM; on TNKS2, 5.7e-09 M.

`CCn1cc(C(=O)C2CCN(C(=O)CCCc3nn4cc(C)cc4c(=O)[nH]3)CC2)cn1` [Compound C233, 2-{4-[4-(1-Ethyl-1H-pyrazole-4-carbonyl)-piperidin-1-yl]-4-oxo-butyl}-6-methyl-3H-pyrrolo[2,1-f][1,2,4]triazin-4-one]: the EC50 in the assay with Tankyrases turned out to be 5.4e-08 M. Also, the results for the IC50 at PARP-1, against TNKS1 and at TNKS2 were 5300 nM, 1.2 nM and 2.3e-09 M, respectively.

For `Cc1ccc(C(=O)C2CCN(C(=O)CCCc3nc4c(cnn4C)c(=O)[nH]3)CC2)cc1` [Compound C234, 1-Methyl-6-{4-[4-(4-methyl-benzoyl)-piperidin-1-yl]-4-oxo-butyl}-1,5-dihydro-pyrazolo[3,4-d]pyrimidin-4-one], in the assay with Tankyrases, the EC50 worked out at 1.6e-08 M. For the same molecule, the IC50 turned out to be 18000 nM against PARP-1, 0.66 nM on TNKS1 and 3e-10 M at TNKS2.

On to `Cc1ccc(C(=O)C2CCN(C(=O)CCCc3nn4cccc4c(=O)[nH]3)CC2)cc1` [Compound C235, 2-{4-[4-(4-Methyl-benzoyl)-piperidin-1-yl]-4-oxo-butyl}-3H-pyrrolo[2,1-f][1,2,4]triazin-4-one], for which the EC50 in the assay with Tankyrases stood at 3.9e-09 M. For the same molecule, the IC50 came to 3000 nM against PARP-1, 0.57 nM against TNKS1 and 3.9e-10 M on TNKS2.

Consider `Cn1ncc2c(=O)[nH]c(CCCC(=O)N3CCC(C(=O)c4ccc(Cl)cc4)CC3)nc21` [Compound C236, 6-{4-[4-(4-Chloro-benzoyl)-piperidin-1-yl]-4-oxo-butyl}-1-methyl-1,5-dihydro-pyrazolo[3,4-d]pyrimidin-4-one], for which the EC50 with Tankyrases came out at 2.1e-08 M. In addition, the IC50 against PARP-1 was found to be 10000 nM; against TNKS1, 0.48 nM; at TNKS2, 2.4e-10 M.

As to `O=C(c1ccc(Cl)cc1)C1CCN(C(=O)CCCc2nn3cccc3c(=O)[nH]2)CC1` [Compound C237, 2-{4-[4-(4-Chloro-benzoyl)-piperidin-1-yl]-4-oxo-butyl}-3H-pyrrolo[2,1-f][1,2,4]triazin-4-one], the EC50 in the assay with Tankyrases stood at 1e-08 M. Also, the values for the IC50 against PARP-1, at TNKS1 and at TNKS2 were 10000 nM, 0.66 nM and 3e-10 M, respectively.

Consider `Cn1cc(C(=O)C2CCN(C(=O)CCCc3nn4c(F)c(F)cc4c(=O)[nH]3)CC2)cn1` [Compound C238, 6,7-Difluoro-2-{4-[4-(1-methyl-1H-pyrazole-4-carbonyl)-piperidin-1-yl]-4-oxo-butyl}-3H-pyrrolo[2,1-f][1,2,4]triazin-4-one], for which the EC50 in the assay with Tankyrases was 5.6e-08 M. Further, the figures for the IC50 on PARP-1, at TNKS1 and on TNKS2 were 4100 nM, 1.5 nM and 1.5e-09 M, respectively.

For `COc1ccc(C(=O)C2CCN(C(=O)CCCc3nc(C)c(C)c(=O)[nH]3)CC2)cc1` [Compound C239, 2-{4-[4-(4-Methoxy-benzoyl)-piperidin-1-yl]-4-oxo-butyl}-5,6-dimethyl-3H-pyrimidin-4-one], the EC50 with Tankyrases was 1.5e-08 M. Besides, the IC50 was 24000 nM on PARP-1, 2.6 nM against TNKS1 and 8.2e-10 M at TNKS2.
